Results as given in PubChem BioAssay (NCI).
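Dose response: 5 concentrations. Exposure: 48 h. Format: 96-well plates. Endpoint: linear interpolation; highest concentration if not reached. The concentration for 50% growth inhibition is given as GI50. TGI denotes the concentration required for complete inhibition of growth.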

Legend:
Test in all cases: NCI tumour cell line growth inhibition, 48 h
DMS 273 small cell lung = test system: DMS 273 small cell lung
DLD-1 colon = test system: DLD-1 colon
KM20L2 colon = test system: KM20L2 colon
SNB-78 CNS = test system: SNB-78 CNS
M19-MEL melanoma = test system: M19-MEL melanoma
DMS 114 small cell lung = test system: DMS 114 small cell lung
XF 498 CNS = test system: XF 498 CNS
LXFL 529 NSCLC = test system: LXFL 529 NSCLC

Row | SMILES | TGI (DMS 273 small cell lung) [µM] | TGI (DLD-1 colon) [µM] | TGI (KM20L2 colon) [µM] | TGI (SNB-78 CNS) [µM] | TGI (M19-MEL melanoma) [µM] | TGI (DMS 114 small cell lung) [µM] | TGI (XF 498 CNS) [µM] | TGI (LXFL 529 NSCLC) [µM] | GI50 (DLD-1 colon) [nM] | GI50 (KM20L2 colon) [nM] | GI50 (SNB-78 CNS) [nM] | GI50 (M19-MEL melanoma) [nM] | GI50 (DMS 114 small cell lung) [nM] | GI50 (XF 498 CNS) [nM] | GI50 (LXFL 529 NSCLC) [nM]
1 | COC(=O)C1=Cc2cc3c(cc2[C@H](c2ccc4c(c2)OCO4)C1C(=O)OC)OCO3 (some centres not stated) | > 100 | > 100 | > 100 | > 100 | > 100 | > 100 | > 100 | > 100 |  |  |  |  |  |  | 
2 | CCOC(=O)C(C(=O)c1ccccc1-c1ccccc1C(=O)O)=P(c1ccccc1)(c1ccccc1)c1ccccc1 | > 100 |  | 59.5 |  | 72.8 | 54.4 | 50.2 | > 100 |  |  |  |  |  |  | 
3 | CCCOC(=O)C1CCC(=O)N1C(=O)C(Cl)Cl (configuration not stated) | > 100 | > 100 | > 100 | > 100 | > 100 | > 100 | > 100 | > 100 |  |  |  |  |  |  | 
4 | COC(=O)C1=C(O)C(O)=C(C(=O)OC)CC1 | > 100 | > 100 |  | > 100 | > 100 | > 100 | > 100 | > 100 |  |  |  |  |  |  | 
5 | COC(=O)C(=O)C(C#N)c1cccc2ccccc12 (configuration not stated) | > 100 | > 100 | > 100 | > 100 | > 100 | > 100 | > 100 | > 100 |  |  |  |  |  |  | 
6 | COC1OC(OC)C2C(c3c(C)cc(C)cc3C)=NOC12 (configuration not stated) | > 100 | > 100 | > 100 | > 100 | > 100 |  | > 100 | > 100 |  |  |  |  |  |  | 
7 | CCCCN(CCCC)C(=Nc1ccccc1)N(CCCC)CCCC | 17.1 | 43.6 | 12.5 | 41 | 22.4 | 4.99 | 5.95 | 18.5 |  |  |  |  |  |  | 
8 | O=C(CC1Sc2ccccc2NC1=O)Nc1cccc(Cl)c1 (configuration not stated) | > 100 | > 100 | > 100 | > 100 | > 100 | > 100 | 86.5 | > 100 |  |  |  |  |  |  | 
9 | Cc1cc(O)c2c(c1)C[C@@H](O)C1=C2C(=O)c2c(O)ccc(OC3CC(O)C(OC4CC(OC5CCC(OC6CC(O)C(OC7CC(OC8CCC(O)C(C)O8)C(O)C(C)O7)C(C)O6)C(C)O5)C(O)C(C)O4)C(C)O3)c2C1=O (some centres not stated) | 0.0684 | 0.0426 | 0.191 | 0.064 | 0.0197 | 0.0378 | 0.0517 | 0.0293 |  |  |  |  |  |  | 
10 | CC(C)NC(=O)OCc1nnn2c1C(OC(=O)NC(C)C)CC2 (configuration not stated) | > 100 | > 100 | > 100 | > 100 | > 100 | > 100 | > 100 | > 100 |  |  |  |  |  |  | 
11 | CCC12C=CCN3CC[C@]4(C(=C(C(=O)OC)[C@@H]1Nc1ncnc5c1ncn5C1OC(COC(C)=O)C(OC(C)=O)C1OC(C)=O)Nc1ccccc14)C32 (some centres not stated) | 7.17 | 6.22 | 6.94 | 8.26 | 5.93 | 4.27 | 7.44 | 5.42 |  |  |  |  |  |  | 
12 | COC1CCC(=C2C(=O)OC(C)(C)OC2=O)N1 (configuration not stated) | > 100 | > 100 | > 100 |  | > 100 | > 100 | > 100 | > 100 |  |  |  |  |  |  | 
13 | CCc1ccc(Cc2ccc(CC)c(NC(=O)C(=O)Cc3nc4ccccc4nc3C)c2CC)c(CC)c1NC(=O)C(=O)Cc1nc2ccccc2nc1C |  | > 100 | > 100 | > 100 | > 100 | > 100 |  | > 100 |  |  |  |  |  |  | 
14 | COC(=O)C1=CC(=O)C(C(=O)Nc2ccc(OC)cc2)C(c2ccccc2)O1 (configuration not stated) | > 71 | > 100 | > 100 | > 81.9 |  | > 67.5 |  | 62.4 |  |  |  |  |  |  | 
15 | COc1ccc(CN(O)C2C(CO)OC(n3cc(I)c(=O)[nH]c3=O)C2O)cc1 (configuration not stated) | > 100 | > 100 | > 100 | > 100 | > 100 | > 100 | > 100 | > 100 |  |  |  |  |  |  | 
16 | CCS[C@H]1NC(=O)C1[C@H](C)O[Si](C)(C)C(C)(C)C (some centres not stated) | > 100 | > 100 | > 100 | > 100 | > 100 | > 100 | > 100 |  |  |  |  |  |  |  | 
17 | c1ccc([CH2][Sn]([CH2]c2ccccc2)([S]c2cccc3cccnc23)[S]c2cccc3cccnc23)cc1 |  | 0.886 | 1.14 | 1.5 | 0.739 | 0.378 | 0.367 | 0.244 | 282 | 365 | 382 | 276 | 175 | 109 | 101
